# In patent US9766250B2, “Method for detecting protein-protein interaction” (MEDICAL & BIOLOGICAL LABORATORIES CO., LTD., priority 2011, dated 2017):
# How the values were obtained:
# Type in all cases: cell-based
# [1] = system: interaction between HRas and cRaf; test: Time course of fluorescent foci after EGF, HRas/cRaf (Example 28); conditions: cells with p62(PB1)-HRas(WT) and AG-cRaf(R59A); 50 ng/ml; vicinity of the cell membrane
# Description: EGF (manufactured by SIGMA CO.) was added thereto to the final concentration of 50 ng/ml. A measurement apparatus capable of detecting a fluorescent signal only in the vicinity of the cell membrane was used for the observation. Note that the observation was started 5 minutes before the EGF addition, and continued at 5-minute intervals for 30 minutes after the addition. The observation was made another 30 minutes thereafter. On the basis of the obtained image data, analysis was performed by the same method as that described in Example 11, and a graph was prepared by plotting a total fluorescence intensity of fluorescent foci (assemblies) against time. Note that, in the graph, the x axis represents time (minutes), provided that time when EGF was added is 0, and the y axis represents the total fluorescence intensity of fluorescent foci (assemblies).
# [2] = system: interaction between an ERK substrate and Pin1(ww); test: Time course of fluorescent foci after EGF and U0126, 293 cells (Example 27); conditions: 293 cells expressing p62(PB1)-ERK_substrate and AG-Pin1(ww)-NES; 50 ng/ml
# Description: On the next day, EGF (manufactured by SIGMA CO.) was added to the cells to the final concentration of 50 ng/ml. Further, 14 minutes thereafter, U0126 was added to the cells to the final concentration of 10 μM. Meanwhile, the cell observation was started 2 minutes before the EGF addition, and the observed images were obtained every 15 seconds. The obtained images were used to analyze a total fluorescence luminance of fluorescent foci (assemblies) by the same method as that described in Example 11, and a graph was prepared by plotting the total fluorescence luminance against time.
# [3] = system: interaction between KRas and cRaf; test: EGF-dependent fluorescent foci near the cell membrane, Cos-7 cells (Example 23); conditions: Cos-7 cells co-expressing p62(PB1)-KRas(WT) and AG-cRaf(R59A); 50 ng/ml; 37° C. for 30 minutes
# Description: The cells were observed using a total internal reflection fluorescence microscopy system with arc lamp source (manufactured by Olympus Corporation, IX71-ARCEVA) capable of exciting only the vicinity of the cell membrane. Additionally, regarding the combination of pp62(PB1)-KRas (WT) with the phAG-cRaf (R59A), an image was obtained when no EGF was added. After that, EGF (manufactured by SIGMA CO.) was added to the cells to the final concentration of 50 ng/ml and left standing at 37° C. for 30 minutes. Then, the resultant was observed again.
substance,measurement,setting,value
"epidermal growth factor (NSDSECPLSHDGYCLHDGVCMYIEALDKYACNCVVGYIGERCQYRDLKWWELR; Epidermal growth factor; UniProt P01133 971-1023, looked up) [EGF]",interaction between HRas and cRaf after EGF addition,[1],took place by adding EGF
same,fluorescent foci after EGF addition,[2],fluorescent foci (assemblies) were significantly observed as time elapsed
same,assembly formation after EGF addition,[3],the assembly formation was observed at the cell membranes
